Reference: patent publication US20230346831A1, “METHODS FOR TREATING […] USING LOW DOSE CARBON MONOXIDE” (priority 2020, published 2023)

What was measured:
[1] = system: N134/RHAMM^B cells; experiment: tail vein liver metastasis model; format: in vivo; conditions: 1.5 × 10^6 N134/RHAMM^B cells tail vein, NSG mice, 250 ppm CO 3 hours daily, 24 days
Experimental: NSG mice were injected with 0.1 million (FIGS. 3A-3B) or 5 × 10^4 (FIGS. 3C-3E) MDA-MB-231/TGL breast cancer cells through tail vein or 8988T/TGL pancreatic cancer cells through spleen (FIGS. 3F-3H). Mice were randomly divided into two groups after injection. One group of mice was kept in regular mouse holding room all the time while the other group was treated with 250 ppm CO for 3 hours daily starting one day after injection. FIGS. 3C and 3F: bioluminescent imaging was taken at day 0, day 1, day3 and then once a week and signals from the whole mice were plotted. FIGS. 3A, 3D and 3G: organs were harvested for histological analysis. Representative H&E stained images of metastatic tumors in the lung sections (FIGS. 3A and 3D) and in the liver sections (FIG. 3G) were shown. Metastatic tumor areas or numbers of mets on the H&E stained sections for each mouse were quantified (FIGS. 3B, 3E and 3H).
In another experiment, immunodeficient NOD/scid-IlL2Rgc knockout mice were injected with 1.5 × 10^6 N134/RHAMM^B cells in 120 µl PBS via tail veins. Tumors developed 24 days after injection with 1.5 × 10^6 N134/RHAMM^B cells, and livers were assessed.

[2] = system: CYP1B1; experiment: Western blot analysis; format: cell-based, human; conditions: 250 ppm CO
Experimental: 1.5 × 10^6 cells were seeded in 6-cm cell culture plates with DMEM containing 10% FBS, 0.2 mM L-glutamine and 1% penicillin/streptomycin. Additionally, MCF7/TGL/pQ was cultured in media containing 0.5 µgml^-1 puromycin and 25 mM HEPES. After 16 hours of incubation, cells were lysed with RIPA buffer (0.1% SDS, 1% TritonX-100, 0.5% sodium deoxycholate, 25 mM Tris pH 8.0, 150 mM NaCl, and 1 mM EDTA) supplemented with a protease inhibitor mixture and PhosSTOP (Roche, Basel, Switzerland). Proteins were quantified with Bradford assay (Bio-Rad, Hercules CA). Equal amounts of proteins were separated with SDS-PAGE and transferred to nitrocellulose membranes. To visualize equal protein loading, blots were stained with Ponceau S. Blots were incubated in 5% non-fat milk in TBST, probed with primary antibodies to CYP1B1 (1:1,000, Abcam, Cambridge, United Kingdom, Cat. No. 32649), HO-1 (1:1,000, Santa Cruz Biotechnology, Dallas, TX, Cat. No. 136960), BACH1 (1:1,000, ABclonal, Woburn, MA, Cat. No. A5393), E-cadherin (1:1,1000, BD Biosciences (Cat. No. 610181), San Jose, CA), α-tubulin (1:1,000, Sigma (Cat. No. T5168), St. Louis MO), and vimentin (1:1,000, Cell Signaling Tech (Cat. No. 5741), Danvers, MA), and then were incubated with horseradish peroxidase-conjugated secondary antibodies. Protein bands were visualized by enhanced chemical luminescence (Pierce, Dallas, TX). […]

[3] = system: HCP1; experiment: quantitative real-time reverse transcription PCR; format: cell-based, human; conditions: MCF7/TGL and MDA-MB-231/TGL cells; 250 ppm CO
Experimental: (§1) mRNA was isolated from cells (MCF7/TGL and MDA-MB-231/TGL) grown on 6-cm dishes using RNeasy mini kit (Qiagen, Hilden, Germany) containing gDNA Eliminator spin columns. cDNA was generated using the SuperScript III First-strand synthesis system with random hexamers (Invitrogen, Carlsbad, CA), and power SYBR green (Invitrogen, Carlsbad, CA)-based quantitative real-time PCR was performed using primer specific for HRG1 (human, forward: 5′- […] -3′ (SEQ ID NO: 1), reverse: 5′- […] -3′ (SEQ ID NO: 2)) or HCP1 (human forward: 5′- […] -3′ (SEQ ID NO: 3), reverse: 5′-[…] -3′ (SEQ ID NO: 4)), CYP1B1 (human, forward: 5′TGAGTGCCGTGTGTTTCGG -3′ (SEQ ID NO: 5), reverse: 5′-[…] -3′ (SEQ ID NO: 6)), SP1 (human, forward: 5′-GTGGCCGCTACCTTCACTG -3′ (SEQ ID NO: 7), reverse: 5′-GCCCCACTCCTACTTGGTC -3′ (SEQ ID NO: 8)) with the comparative CT method (ΔΔCT; ABI).
(§2) To investigate how CO reduces heme levels, whether CO decreased the transportation of heme into the cytosol was examined. […] Furthermore, heme oxygenases (HO-1, HO-2, and HO-3) cleave heme into 3 products: CO, ferrous ions (Fe2+), and biliverdin. […] Likewise, changes in protein levels of Bach 1 (a physiological repressor of HO-1 and a pro-metastatic transcription factor, whose degradation is reported to be mediated by heme in Nrf2-mutated lung cancer) was not detected (FIG. 4E). […]

[4] = system: HRG1; experiment: quantitative real-time reverse transcription PCR; format: cell-based, human; conditions: MCF7/TGL and MDA-MB-231/TGL cells; 250 ppm CO
Experimental: as §1, §2

[5] = system: FLVCR1; experiment: expression of heme exporter; format: cell-based, human; conditions: MCF7/TGL and MDA-MB-231/TGL cells; with or without 250 ppm CO
Description: To investigate how CO reduces heme levels, whether CO decreased the transportation of heme into the cytosol was examined. […] Furthermore, heme oxygenases (HO-1, HO-2, and HO-3) cleave heme into 3 products: CO, ferrous ions (Fe2+), and biliverdin. […] So, whether there was an increase of HO-1 expression by low-dose CO treatment that could contribute to heme degradation was examined. […] Likewise, changes in protein levels of Bach 1 (a physiological repressor of HO-1 and a pro-metastatic transcription factor, whose degradation is reported to be mediated by heme in Nrf2-mutated lung cancer) was not detected (FIG. 4E). […] Taken together, CO decreased heme importers to lower intracellular heme levels, which inhibited cancer cell migration.

[6] = system: CYP1B1; experiment: quantitative real-time reverse transcription PCR; format: cell-based, human; conditions: MCF7 and MDA-MB-231 cells; 250 ppm CO
Experimental: as §1
(§3) Heme is known to stimulate synthesis of many hemoproteins. Accordingly, hemoproteins whose expression was differentially regulated by low-dose CO in MCF7 and MDA-MB-231 cell lines were screened. CYP1B1, a heme-regulated protein, was identified as a top candidate in the list because of its following properties. First, CYP1B1 has been reported to induce the expression of SP1 transcription factor, and Sp1 interacts with Myc for synergistic transcriptional regulation for Myc target genes. […]

[7] = system: SP1; experiment: quantitative real-time reverse transcription PCR; format: cell-based, human; conditions: MCF7 and MDA-MB-231 cells; 250 ppm CO
Experimental: as §1, §3

Structure (SMILES): [C-]#[O+] [CO, Carbon monoxide]
- total metastatic pancreatic tumor burden in the liver [1]: showed a trend to reduce
- liver metastases ([1]; vs untreated controls): reduced
- CYP1B1 protein levels ([2]; MCF7 and MDA-MB-231 cells): significantly reduced
- CYP1B1 protein levels ([2]; PDAC 8988T cells): reduced
- HCP1 mRNA expression [3]: reduced
- HRG1 mRNA expression [4]: reduced
- FLVCR1 (heme exporter) expression [5]: no significant/consistent changes
- CYP1B1 mRNA levels [6]: significantly reduced
- SP1 mRNA levels [7]: significantly reduced
